Data taken from publication PMC7824769, “Identification of Small Molecules Blocking the Pseudomonas aeruginosa Type III Secretion System Protein PcrV” (Biomolecules, 2021).
Where “and” joins values, the source holds several entries; their conditions need not be identical. Identical values can stand only once.

Target: PcrV (Pseudomonas aeruginosa, UniProt G3XD49)
Assay: SPR dose-response binding to immobilized PcrV (equilibrium analysis)
Conditions: for Kd: SPR KD, equilibrium analysis, mean ± SD of three or more independent experiments, individual values where n < 3, 25 °C, PBST 5% DMSO; for Binding to PcrV in SPR (in words): dose-response SPR
Description: The SPR screening was performed using the ProteOn^TM XPR36 Protein Interaction Array System (Bio-Rad Laboratories Inc., Hercules, CA, USA) with ProteOn GLH sensor chip (Bio-Rad Laboratories Inc., Hercules, CA, USA), and the results were analyzed with the ProteOn Manager software^TM (Bio-Rad Laboratories Inc., Hercules, CA, USA), Excel 2016 (Microsoft Office), and GraphPad Prism 7.04. All SPR experiments were performed at 25 °C. The multichannel module of the ProteOn system was in the vertical position during protein immobilization. The proteins were attached to the surface of a GLH sensor chip via amine coupling chemistry. A buffer scouting was performed to elucidate the optimal binding conditions of PcrV to the GLH sensor chip. First, channels 1–4 on the chip surface were activated using a 1:1 mixture of 40 mM 1-ethyl-3-(3-dimethylaminopropyl)carbodiimide hydrochloride (EDAC) (Bio-Rad Laboratories Inc., Hercules, CA, USA) and 10 mM N-hydroxysulfosuccinimide (sulfo-NHS, Bio-Rad Laboratories Inc., Hercules, CA, USA) for 300 s at 30 µL/min. Next, the proteins PcrV (33,398.6 Da, 6.37 mg/mL) was diluted in 10 mM NaOAc (pH 4, 4.5, and 5) to 0.05 mg/mL. PcrV was immobilized in channel 1–3 for 540 s at 30 µL/min. Channel 4 was flushed with 10 mM NaOAc (pH 5) for 540 s at 30 µL/min. As deactivating agent, a 1:1 mixture of 1 M ethanolamine and milli-Q filtered water was used. The deactivating solution was injected over all four channels for 300 s at 30 µL/min. Phosphate buffered saline with Tween (PBST; 10 mM phosphate buffer pH 7.4, 140 mM NaCl, 2.7 mM KCl, and 0.05% Tween 20) was used as the running buffer. The final amount of immobilized protein was measured in resonance units (RU) relative to the signal of the baseline prior activation. […] Immobilization of PcrV diluted in sodium acetate of pH 4.5 in one channel and of pH 5 in one channel were used in the beginning of the screening procedure (for plate 1–26). Since no difference was found between the two pH values, the PcrV protein was diluted in sodium acetate at pH 5 only (in two channels) from plate 27 and the rest of the screen. The immobilization procedure for the screening was performed as described above with the addition that the control protein carbonic anhydrase isoenzyme II from bovine erythrocytes (CAII, Sigma-Aldrich, article number 2522) was immobilized in one channel that was activated and deactivated as described above. CAII (1 mg/mL in PBS) was deactivated when diluted in 10 mM sodium acetate (pH 4) to 0.05 mg/mL. Immobilization level of the deactivated CAII was 18,000 RU. Deactivated CAII was used as a control protein according to the recommendations by the ProteOn manufacturer (Bio-Rad Laboratories Inc., Hercules, CA, USA). As running buffer, we employed PBS (pH 7.4, 0.05% Tween 20).
First, the PcrV protein was immobilized in two channels as described above while keeping a blank channel which was activated and deactivated as described above. The multichannel module of the ProteOn system was in horizontal position during the small molecule interaction studies. They were serially diluted to (400,) 200, 100, 50, 25, 12.5, 6.25, and (3.125); or 100, 50, 25, and 12.5 µM; or 100, 66.7, 44.4, 29.6, 19.7, and 13.2 µM in PBST (0.05% Tween 20) with a total concentration of 5% DMSO in 96-well plates. The running buffer was PBST (0.05% Tween 20) containing 5% DMSO. The analytes were injected at a flowrate of 100 µL/min, contact time was 60 s, and dissociation time was 60–120 s. Solvent correction was performed continuously during the experiments to account for bulk response of DMSO. The data was then baseline-aligned, processed by channel referencing with the blank channel, and solvent-corrected. The equilibrium dissociation constant (KD) values were determined from equilibrium analysis in the ProteOn Manager software^TM. Solubility problems frequently hampered KD determination since the small molecules could not always be dissolved in concentrations high enough to reach a plateau. […]

Sequence of PcrV (G3XD49 entry or part of it): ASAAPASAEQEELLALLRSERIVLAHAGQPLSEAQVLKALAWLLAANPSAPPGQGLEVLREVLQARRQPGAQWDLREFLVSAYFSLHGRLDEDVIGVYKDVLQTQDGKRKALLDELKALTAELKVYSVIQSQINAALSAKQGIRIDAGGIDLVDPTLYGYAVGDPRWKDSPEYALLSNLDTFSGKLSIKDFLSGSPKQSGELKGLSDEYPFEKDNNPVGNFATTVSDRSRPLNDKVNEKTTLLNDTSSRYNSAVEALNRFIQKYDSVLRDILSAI

Compound | Kd | Binding to PcrV in SPR (in words)
O=C(O)CCCOc1cc(Cl)cc(Cl)c1 [Compound 2] | < 127 µM and 102 µM and 127 µM | –
O=C(O)CCCOc1ccc(Cl)cc1 [Compound 3] | > 600 µM | no binding at the examined concentrations
O=C(O)CCCOc1ccc(I)cc1 [Compound 4] | > 600 µM | no binding at the examined concentrations
O=C(O)CCCOc1ccc(Br)cc1F [Compound 5] | > 600 µM | no binding at the examined concentrations
COc1ccc(Br)cc1OCCCC(=O)O [Compound 6] | > 600 µM | impaired binding
COc1cc(OC)cc(OCCCC(=O)O)c1 [Compound 7] | > 600 µM | impaired binding
O=C(O)CCCOc1ccc2c(c1)OCO2 [Compound 8] | > 600 µM | impaired binding
O=C(O)CCCOc1cccc(C(F)(F)F)c1 [Compound 9] | > 600 µM | no binding to PcrV
O=C(O)CCCOc1cccc(C(=O)O)c1 [Compound 10] | > 600 µM | no binding to PcrV
O=C(O)CCCOc1ccc2ccc(=O)oc2c1 [Compound 11] | > 600 µM | no binding to PcrV
Cc1cc(C#N)cc(C)c1OCCCC(=O)O [Compound 12] | > 600 µM | reduced binding
